ChEMBL document CHEMBL5131399, “Broadening antifungal spectrum and improving metabolic stablity based on a scaffold strategy: Design, synthesis, and evaluation of novel 4-phenyl-4,5-dihydrooxazole derivatives as potent fungistatic and fungicidal reagents” (Eur J Med Chem, 2022)
Converted amounts (≈) assume the structure as drawn.

Experiments:
[1] = Stability in human plasma assessed as half life measured at 120 mins by LC/MS-MS analysis; format: ADME, cell-free
[2] = system: Candida albicans; assay: Antifungal activity against Candida albicans ATCC SC5314 assessed as fungal growth inhibition by NCCLS protocol based method; format: functional
[3] = system: Candida albicans; assay: Antifungal activity against Candida albicans CPCC400616 assessed as fungal growth inhibition by NCCLS protocol based method; format: functional
[4] = system: Candida tropicalis; assay: Antifungal activity against Candida tropicalis CGMCC 2.3739 assessed as fungal growth inhibition by NCCLS protocol based method; format: functional
[5] = system: Cryptococcus neoformans; assay: Antifungal activity against Cryptococcus neoformans CGMCC 2.3161 assessed as fungal growth inhibition by NCCLS protocol based method; format: functional
[6] = system: Candida parapsilosis; assay: Antifungal activity against Candida parapsilosis GIM2.190 assessed as fungal growth inhibition by NCCLS protocol based method; format: functional; conditions: Lodderomyces parapsilosis
[7] = system: Nakaseomyces glabratus; assay: Antifungal activity against Candida glabrata clinical isolate assessed as fungal growth inhibition by NCCLS protocol based method; format: functional
[8] = system: Pichia kudriavzevii; assay: Antifungal activity against Candida krusei GIM2.1 assessed as fungal growth inhibition by NCCLS protocol based method; format: functional
[9] = system: Aspergillus fumigatus; assay: Antifungal activity against Aspergillus fumigatus CGMCC3.7795 assessed as fungal growth inhibition by NCCLS protocol based method; format: functional
[10] = system: Candida albicans; assay: Antifungal activity against FLC-resistant Candida albicans CaR assessed as fungal growth inhibition by NCCLS protocol based method; format: functional
[11] = system: Candida albicans; assay: Antifungal activity against FLC-resistant Candida albicans 901 assessed as fungal growth inhibition by NCCLS protocol based method; format: functional
[12] = system: Candida albicans; assay: Antifungal activity against FLC-resistant Candida albicans 904 assessed as fungal growth inhibition by NCCLS protocol based method; format: functional
[13] = system: Candida albicans; assay: Antifungal activity against FLC-resistant Candida albicans 632 assessed as fungal growth inhibition by NCCLS protocol based method; format: functional
[14] = system: Candida albicans; assay: Antifungal activity against FLC-resistant Candida albicans 100 assessed as fungal growth inhibition by NCCLS protocol based method; format: functional
[15] = system: Candida albicans; assay: Antifungal activity against FLC-resistant Candida albicans 103 assessed as fungal growth inhibition by NCCLS protocol based method; format: functional
[16] = system: Candida albicans; assay: Antifungal activity against FLC-resistant Candida albicans 311 assessed as fungal growth inhibition by NCCLS protocol based method; format: functional
[17] = system: Candida albicans; assay: Antibiofilm activity against FLC-resistant Candida albicans CPCC400616 assessed as assessed as inhibition of biofilm formation measured at 3 hrs by XTT reduction assay; format: functional
[18] = system: Candida albicans; assay: Antibiofilm activity against FLC-resistant Candida albicans CPCC400616 assessed as assessed as inhibition of biofilm formation measured at 6 hrs by XTT reduction assay; format: functional
[19] = system: Candida albicans; assay: Antibiofilm activity against FLC-resistant Candida albicans CPCC400616 assessed as assessed as inhibition of biofilm formation measured at 18 hrs by XTT reduction assay; format: functional
[20] = system: Candida albicans; assay: Antibiofilm activity against FLC-resistant Candida albicans CPCC400616 assessed as assessed as inhibition of biofilm formation measured at 24 hrs by XTT reduction assay; format: functional
[21] = Stability in human plasma assessed as compound remaining measured at 120 mins by LC/MS-MS analysis; format: ADME, cell-free; conditions: read-out: Stability
[22] = system: Candida albicans; assay: Fungicidal activity against Candida albicans CPCC400616 assessed as minimum inhibitory concentration incubated for 48 hrs; format: functional
[23] = system: Candida albicans; assay: Fungicidal activity against Candida albicans CPCC400616 assessed as minimum fungicidal concentration incubated for 48 hrs; format: functional
[24] = system: Candida albicans; assay: […] for fungicidal activity against Candida albicans CPCC400616; format: functional
[25] = system: Candida albicans; assay: Fungicidal activity against Candida albicans CPCC400616 assessed as reduction in colony forming units at 8 times MIC incubated for 24 hrs by time kill assay; format: functional
[26] = system: Candida albicans; assay: Fungicidal activity against Candida albicans CPCC400616 assessed as reduction in colony forming units at 2 to 8 times MIC incubated for 24 hrs by time kill assay; format: functional, organism-based; conditions: DDE = dose-dependent effect
[27] = Cytotoxicity against human HEK293T cells assessed as inhibition of cell growth incubated for 4 hrs by MTT assay; format: toxicity, cell-based, HEK-293T
[28] = system: A549; assay: Cytotoxicity against human A549 cells assessed as inhibition of cell growth incubated for 4 hrs by MTT assay; format: functional, cell-based; conditions: A549, 4 h
[29] = system: MCF7; assay: Cytotoxicity against human MCF7 cells assessed as inhibition of cell growth incubated for 4 hrs by MTT assay; format: functional, cell-based; conditions: MCF7, 4 h
[30] = system: HepG2; assay: Cytotoxicity against human HepG2 cells assessed as inhibition of cell growth incubated for 4 hrs by MTT assay; format: functional, cell-based; conditions: HepG2, 4 h
[31] = Half life in Sprague-Dawley rat at 10 mg/kg, po measured after 24 hrs by LC-MS/MS analysis; format: ADME, organism-based; conditions: in vivo
[32] = Metabolic stability in human liver microsomes assessed as half life preincubated for 10 mins followed by NADPH addition and measured after 5 to 60 mins by LC-MS/MS analysis; format: ADME, Microsome; conditions: time 15-70 min
[33] = Metabolic stability in human microsomes assessed as intrinsic clearance preincubated for 10 mins followed by NADPH addition and measured after 5 to 60 mins by LC-MS/MS analysis; format: ADME, Microsome; conditions: time 15-70 min
[34] = Metabolic stability in human liver microsomes assessed as compound remaining preincubated for 10 mins followed by NADPH addition and measured at 60 mins by LC-MS/MS analysis; format: ADME, Microsome; conditions: time 70 min, read-out: Stability
[35] = Stability in human plasma assessed as compound remaining measured at 60 mins by LC/MS-MS analysis; format: ADME, cell-free; conditions: read-out: Stability
[36] = AUClast in Sprague-Dawley rat at 10 mg/kg, po measured after 24 hrs by LC-MS/MS analysis; format: ADME, organism-based; parameters: dose 10 mg/kg, time 24 hrs, route po; conditions: in vivo
[37] = AUClast in Sprague-Dawley rat at 3 mg/kg, iv measured after 24 hrs by LC-MS/MS analysis; format: ADME, organism-based; parameters: time 24 hrs, dose 3 mg/kg, route iv; conditions: in vivo
[38] = Half life in Sprague-Dawley rat at 3 mg/kg, iv measured after 24 hrs by LC-MS/MS analysis; format: ADME, organism-based; conditions: in vivo
[39] = Oral bioavailability in Sprague-Dawley rat at 10 mg/kg measured measured after 24 hrs by LC-MS/MS analysis; format: ADME, organism-based; conditions: in vivo

**Q.** What does the source list for Fc1ccc(C2(Cn3ccnc3)COC(c3ccc(-c4ccccc4F)s3)=N2)cc1 (configuration not stated)?
**A.** half-life [1]: > 4.8 h; MIC [2]: 0.03 µg/mL (≈ 0.0712 µM); MIC [3]: 0.03 µg/mL (≈ 0.0712 µM); MIC [4]: 0.03 µg/mL (≈ 0.0712 µM); MIC [5]: 0.125 µg/mL (≈ 0.297 µM); MIC [6]: 0.25 µg/mL (≈ 0.593 µM); MIC [7]: 0.06 µg/mL (≈ 0.142 µM); MIC [8]: 0.25 µg/mL (≈ 0.593 µM); MIC [9]: 0.25 µg/mL (≈ 0.593 µM); MIC [10]: 0.25 µg/mL (≈ 0.593 µM); MIC [11]: 0.125 µg/mL (≈ 0.297 µM); MIC [12]: 1 µg/mL (≈ 2.37 µM); MIC [13]: 0.5 µg/mL (≈ 1.19 µM); MIC [14]: 0.5 µg/mL (≈ 1.19 µM); MIC [15]: 0.25 µg/mL (≈ 0.593 µM); MIC [16]: 0.125 µg/mL (≈ 0.297 µM); MIC50 [17]: 0.125 µg/mL (≈ 0.297 µM); MIC50 [18]: 1 µg/mL (≈ 2.37 µM); MIC50 [19]: 2 µg/mL (≈ 4.75 µM); MIC50 [20]: 8 µg/mL (≈ 19 µM); remaining at 2 h [21]: 101%; MIC [22]: 0.03 µg/mL (≈ 0.0712 µM); MFC [23]: 0.125 µg/mL (≈ 0.297 µM); Ratio [24]: 4; Activity [25]: 2 log10CFU/ml; Activity [26]: Dde; IC50 at 4 h [27]: 14.2 µM; IC50 [28]: > 50 µM; IC50 [29]: > 50 µM; IC50 [30]: 17 µM; half-life [31]: 4.44 h; half-life [32]: 1.18 h; CLint [33]: 19.7 µL/min/mg; remaining at 1 h [34]: 49.7%; remaining at 1 h [35]: 98.7%; AUC(0-t) at 24 h [36]: 466 ng·h/mL; AUC(0-t) at 24 h [37]: 925 ng·h/mL; half-life [38]: 1.02 h; bioavailability [39]: 15.1%

**Q.** With Cc1ccc(C(=O)C(Cn2ccnc2)NC(=O)c2ccc(-c3ccc(Cl)cc3)s2)cc1 (configuration not stated) as the compound, how does the half-life [32] read?
**A.** 0.31 h

**Q.** And the CLint [33]?
**A.** 74.6 µL/min/mg

**Q.** And the remaining at 1 h [34]?
**A.** 9.3%

**Q.** Which half-life [1] does the source give for c1ccc(-c2ccc(C3=NC(Cn4ccnc4)(c4ccccc4)CO3)s2)cc1 (configuration not stated) here?
**A.** > 4.8 h

**Q.** And the MIC [2]?
**A.** 1 µg/mL (≈ 2.59 µM)

**Q.** And the MIC [3]?
**A.** 1 µg/mL (≈ 2.59 µM)

**Q.** And the MIC [4]?
**A.** 4 µg/mL (≈ 10.4 µM)

**Q.** And the MIC [5]?
**A.** 2 µg/mL (≈ 5.19 µM)

**Q.** And the MIC [6]?
**A.** 16 µg/mL (≈ 41.5 µM)

**Q.** And the MIC [7]?
**A.** 16 µg/mL (≈ 41.5 µM)

**Q.** What about the MIC [8] of the same compound?
**A.** 16 µg/mL (≈ 41.5 µM)

**Q.** And the MIC [9]?
**A.** 8 µg/mL (≈ 20.8 µM)

**Q.** What about the remaining at 2 h [21] of the same compound?
**A.** 89.5%

**Q.** And the half-life [32]?
**A.** 0.837 h

**Q.** What about the CLint [33] of the same compound?
**A.** 27.6 µL/min/mg

**Q.** And the remaining at 1 h [34]?
**A.** 41.3%

**Q.** And the remaining at 1 h [35]?
**A.** 93.1%

**Q.** With OC(Cn1cncn1)(Cn1cncn1)c1ccc(F)cc1F [FLUCONAZOLE] as the compound, how does the MIC [2] read?
**A.** 0.5 µg/mL (≈ 1.63 µM)

**Q.** What about the MIC [3] of the same compound?
**A.** 1 µg/mL (≈ 3.27 µM)

**Q.** What about the MIC [4] of the same compound?
**A.** 0.5 µg/mL (≈ 1.63 µM)

**Q.** What about the MIC [5] of the same compound?
**A.** 4 µg/mL (≈ 13.1 µM)

**Q.** What about the MIC [6] of the same compound?
**A.** 2 µg/mL (≈ 6.53 µM)

**Q.** And the MIC [7]?
**A.** 4 µg/mL (≈ 13.1 µM)

**Q.** What about the MIC [8] of the same compound?
**A.** 8 µg/mL (≈ 26.1 µM)

**Q.** And the MIC [9]?
**A.** > 64 µg/mL

**Q.** What about the MIC [10] of the same compound?
**A.** > 64 µg/mL

**Q.** What about the MIC [11] of the same compound?
**A.** > 64 µg/mL

**Q.** And the MIC [12]?
**A.** > 64 µg/mL

**Q.** What about the MIC [13] of the same compound?
**A.** > 64 µg/mL

**Q.** And the MIC [14]?
**A.** > 64 µg/mL

**Q.** What about the MIC [15] of the same compound?
**A.** > 64 µg/mL

**Q.** What about the MIC [16] of the same compound?
**A.** > 64 µg/mL

**Q.** What about the MIC50 [17] of the same compound?
**A.** 32 µg/mL (≈ 104 µM)

**Q.** What about the MIC50 [18] of the same compound?
**A.** > 64 µg/mL

**Q.** And the MIC50 [19]?
**A.** > 64 µg/mL

**Q.** And the MIC50 [20]?
**A.** > 64 µg/mL

**Q.** And the MIC [22]?
**A.** 0.5 µg/mL (≈ 1.63 µM)

**Q.** And the MFC [23]?
**A.** > 64 µg/mL

**Q.** And the Ratio [24]?
**A.** > 128

**Q.** And the IC50 at 4 h [27]?
**A.** > 50 µM

**Q.** And the IC50 [28]?
**A.** > 50 µM

**Q.** What about the IC50 [29] of the same compound?
**A.** > 50 µM

**Q.** And the IC50 [30]?
**A.** > 50 µM
